Structures can show the parent of a compound that is named as a salt. Marks after values point to notes of the source that are not given here.
How the values were obtained:
[1] = Maximum aqueous solubility, salt shaken in water at 37° C., filtered, UV; assay type: physicochemical; details: 25 mg of dried salt shaken in water at 37° C.
[2] = Stability: HPLC assay before and after drying over phosphorus pentoxide for 1 week; assay type: physicochemical; details: listed as TRI 50c Lys salt; for Amount: 5 mg in 5 mL
Experimental: An assay of TRI 50c and its sodium and lysine salts before and after drying.
For sample analysis, 5 mg of dried and non-dried material was weighed in a 5 mL volumetric flask and dissolved in 1 mL acetonitrile and filled up with demineralised water to 5 mL.
The quantitative evaluation was performed using an HPLC-PDA method.

human α-thrombin = target: T1, human α-thrombin (Homo sapiens, UniProt P00734); details: reported by Deadman et al, J. Med. Chem. 1995; cited from earlier work
T1 construct: 50 μl of human α-thrombin (0.25 NIHμ/ml) was added

Thrombin Time (TT) = experiment: Single oral doses of TGN 167 tablets in healthy male subjects; assay type: in vivo
Experimental: TGN 167 tablets described above were administered via the oral route to 10 healthy male subjects as single doses (randomised double blind placebo controlled study). The group consisted of 10 healthy male volunteers, 9 of whom received active compound and one of whom received placebo. An amendment was introduced for the last panel, allowing 15 subjects (instead of 9) to receive a 600 mg dose. The interval between each dose of TGN 167 was one week minimum. The allocation of the placebo was such that each volunteer would only receive placebo once during the course of the study.
Orally administered doses were: 75 mg (one tablet), 150 mg (two tablets), 300 mg (four tablets) and 600 mg (eight tablets).

[3] = Comparative storage stability of sodium and calcium salts (moisture-permeable packaging); assay type: physicochemical
Text: In both studies the active pharmaceutical ingredient was stored in gray sealed double bags within a PE/PP screw cap closed cylinder.

[4] = Solubility of TRI 50c monosodium salt at different pH values / reconstitution; assay type: physicochemical
Text: A first class of formulation, therefore, comprises particulate formulations, i.e. powders and granules, for oral administration after reconstitution into a liquid preparation, and preferably into a drinkable preparation. It is generally preferred for the liquid preparation to be a solution rather than a suspension and certain particulate formulations are for dissolving to form a drinking solution. The formulation may be for reconstitution into a suspension or more normally a solution having a volume of from about 50 ml to about 150 ml. The disclosure also contemplates reconstituted volumes of less than about 50 ml or of more than about 150 ml, e.g. of up to about 250 ml and more often of up to about 200 ml.
However, a solution with a pH of 9.5 will often be undesirably distasteful to drink. Accordingly, a pharmaceutically acceptable organic acid may be included in the particulate formulation in an amount selected to reduce the pH to a value at which the solution is more palatable but at which a solution of drinkable quantity (e.g. about 50 ml to about 150 ml) may be formed by reconstituting the particulate formulation. As the organic acid may be mentioned citric acid, tartaric acid or malic acid, for example. In many instances, citric acid is chosen.
In a first series of experiments, this amount of the salt was dissolved in 50 ml water to form a solution of approximately pH 9.5. Dilute aqueous HCl was added to determine how much the pH could be reduced before precipitation occurred.
In a second series of experiments, the same amount of the salt was dissolved in 150 ml water, and citric acid was added. […] Since acid solutions tend to be more palatable than alkaline ones, and citric acid is a common flavouring agent, this behaviour of the salt is highly beneficial. […] In general, it is contemplated that the boronate will be formulated to form a reconstituted solution having a pH of from 4 to 8, e.g. 4 to 7, optionally 5 to 6.

[5] = Excretion of administered dose as TRI 50c species; details: in vivo
[6] = dry (1 week over phosphorus pentoxide)

SMILES: COCCC[C@H](NC(=O)[C@@H]1CCCN1C(=O)[C@@H](Cc1ccccc1)NC(=O)OCc1ccccc1)B(O)O [Lithium Salt of TRI50C]
- observation on dissolution [1]: left a white residue of undissolved material

SMILES: COCCC[C@H](NC(=O)[C@@H]1CCCN1C(=O)[C@@H](Cc1ccccc1)NC(=O)OCc1ccccc1)B(O)O [Lysine Salt of TRI50C]
- Amount [2, 6]: 813.3 µg/mL
- Purity [2, 6]: 90.17 % area
- Amount ([2]; non-dried): 809.8 µg/mL
- Purity ([2]; non-dried): 92.25 % area

SMILES: CNC[C@H](O)[C@@H](O)[C@H](O)[C@H](O)CO.COCCC[C@H](NC(=O)[C@@H]1CCCN1C(=O)[C@@H](Cc1ccccc1)NC(=O)OCc1ccccc1)B(O)O [N-METHYL-D-GLUCAMINE SALT OF TRI50C]
- observation on dissolution [1]: fully dissolve

SMILES: COCCC[C@H](NC(=O)[C@@H]1CCCN1C(=O)[C@@H](Cc1ccccc1)NC(=O)OCc1ccccc1)B([O-])O.[K+] [Potassium Salt of TRI50C]
- observation on dissolution [1]: left a white residue of undissolved material

SMILES: COCCCC(NC(=O)C1CCCN1C(=O)C(Cc1ccccc1)NC(=O)OCc1ccccc1)B1OC(C)(C)C(C)(C)O1 [TRI 50b, Cbz-(R)-Phe-Pro-BoroMpg-OPinacol]
- Ki (human α-thrombin): 7 nM

SMILES: COCCC[C@H](NC(=O)[C@@H]1CCCN1C(=O)[C@@H](Cc1ccccc1)NC(=O)OCc1ccccc1)B([O-])O.COCCC[C@H](NC(=O)[C@@H]1CCCN1C(=O)[C@@H](Cc1ccccc1)NC(=O)OCc1ccccc1)B([O-])O.[Ca+2] [TRI 50c calcium salt]
- observation on dissolution [1]: left a white residue of undissolved material
- time at which all TT had returned to baseline (Thrombin Time (TT); after oral administration): 10 h
- adverse clinical events (general or cardiovascular) (Thrombin Time (TT); oral, any dose, study period of 24 hours): no adverse clinical events
- Tri50c (w/w %, LOD corrected) ([3]; T = 0, LOD = loss on drying): (99.7) w/w %
- Tri50c (w/w %, LOD corrected) ([3]; T = 1, 25° C./60% r.h.): (101.5) w/w %
- Tri50c (w/w %, LOD corrected) ([3]; T = 1, 40° C./75% r.h.): (100.6) w/w %
- Tri50c (w/w %, LOD corrected) ([3]; T = 1, −20° C.): (102.7) ^x w/w %
- Tri50c (w/w %, LOD corrected) ([3]; T = 3, 25° C./60% r.h.): (104.3) w/w %
- Tri50c (w/w %, LOD corrected) ([3]; T = 3, 40° C./75% r.h.): (82.0) w/w %
- Tri50c (w/w %, LOD corrected) ([3]; T = 3, −20° C.): (103.0) ^x w/w %
- Tri50c (w/w %, LOD corrected) ([3]; T = 12, 25° C./60% r.h.): (94.8 w/w) w/w %

SMILES: COCCC[C@H](NC(=O)[C@@H]1CCCN1C(=O)[C@@H](Cc1ccccc1)NC(=O)OCc1ccccc1)B(O)O.[Na+] [TRI 50c monosodium salt, Cbz-(R)-Phe-(S)-Pro-(R)-Mpg-B(OH)2 monosodium salt]
- observation on dissolution [1]: left a white residue of undissolved material
- concentration of boronate salt solution formed ([4]; at a pH of about 9.5): up to 600 mg/ml
- pH of solution ([4]; salt equivalent to 600 mg TRI 50c dissolved in 10 ml water): 9.88
- pH of solution ([4]; salt equivalent to 600 mg TRI 50c dissolved in 50 ml water): ~9.5
- Tri50c (w/w %, LOD corrected) ([3]; T = 0, LOD = loss on drying): 101.5 w/w %
- Tri50c (w/w %, LOD corrected) ([3]; T = 1, 25° C./60% r.h.): 103.6 w/w %
- Tri50c (w/w %, LOD corrected) ([3]; T = 1, 40° C./75% r.h.): 94.5 w/w %
- Tri50c (w/w %, LOD corrected) ([3]; T = 1, −20° C.): 104.3 w/w %
- Tri50c (w/w %, LOD corrected) ([3]; T = 3, 25° C./60% r.h.): 100.4 w/w %
- Tri50c (w/w %, LOD corrected) ([3]; T = 3, 40° C./75% r.h.): 52.2 w/w %
- Tri50c (w/w %, LOD corrected) ([3]; T = 12, 25° C./60% r.h.): 71.2 w/w %
- administered dose excreted as TRI 50c species [5]: 14%

— US20080166396A1, “Boronate Medicaments Suitable for Short Duration Anticoagulation” (Trigen Holdings AG Clareville House, priority 2004, published 2008)
